Source: patent US4927831A, “Spiro-isoquinoline-pyrrolidine tetrones and analogs thereof useful as aldose reductase inhibitors” (American Home Products, priority 1989, dated 1990)
Several values for one entry are separate records, joined by “and”; a condition that tells them apart may be missing. Equal entries are not always repeated. Where two headings read alike, the source gives them in different places.

Columns and labels:
aldose reductase = molecular target: T1, aldose reductase (Bos taurus, UniProt P16116); assay: in vitro aldose reductase inhibition (modified Hayman and Kinoshita; enzyme from bovine lens); type: biochemical; settings: read-out: % Inhibition IN VITRO
T1 construct: preparation of the enzyme from bovine lens; from tissue; host or cells: bovine lens
Description: Only two minor reagent changes were made: (a) The rinsing mixture was an aqueous 5% (w/v) trichloroacetic acid solution and (b) the stock solution was prepared by dissolving 25 mg of dulcitol in 100 ml of an aqueous trichloroacetic acid solution. [N.B.: For each experiment the average value found in the tissue from rats fed the glucose diet was subtracted from the individual values found in the corresponding tissue in galactose-fed rats to obtain the amount of polyol accumulated.] […] In the present case the procedure of Hayman and Kinoshita was modified in that the final chromatography step was omitted in the preparation of the enzyme from bovine lens. […] The figures under L and N represent the percentage decrease of dulcitol accumulation in the tissues of the lens and sciatic nerve, respectively, for treated rats as compared to untreated rats.

[1] = system: dulcitol accumulation in the lens; assay: % lowering of dulcitol accumulation in lens (L) of galactosemic rats; type: in vivo, Sprague-Dawley; set-up: key: NS: statistically nonsignificant change; settings: 4 days
Excerpt: (§1) The aldose reductase inhibiting property of the compounds of this invention and the utilization of the compounds in preventing, diminishing and alleviating diabetic complications are demonstrable in experiments using galactosemic rats, see Dvornik et al., Science, 182, 1146 (1973). Such experiments are exemplified hereinbelow after the listing of the following general comments pertaining to these experiments:
(§2) (a) Four or more groups of six male rats, 50-70 g, Sprague-Dawley strain, were used. The first group, the control group, was fed a mixture of laboratory chow (rodent Laboratory Chow, Purina) and glucose at 20% (w/w %) concentration. An untreated galactosemic group was fed a similar diet in which galactose was substituted for glucose. The third group was fed a diet prepared by mixing a given amount of the test compound with the galactose containing diet. The concentration of galactose in the diet of the treated groups was the same as that for the untreated galactosemic group.
(§3) (b) After four days, the animals were killed by euthanization. Both the lens and sciatic nerve were removed, weighed and stored frozen for polyol determination.
(§4) (c) The polyol determination was performed by a modification of the procedure of M. Kraml and L. Cosyns, Clin. Biochem., 2,373 (1969). Only two minor reagent changes were made: (a) The rinsing mixture was an aqueous 5% (w/v) trichloroacetic acid solution and (b) the stock solution was prepared by dissolving 25 mg of dulcitol in 100 ml of an aqueous trichloroacetic acid solution. [N.B.: For each experiment the average value found in the tissue from rats fed the glucose diet was subtracted from the individual values found in the corresponding tissue in galactose-fed rats to obtain the amount of polyol accumulated.] The aldose reductase inhibiting effects of the compounds of formula (I) were also tested by employing an in vitro testing procedure similar to that described by S. Hayman and J.H. Kinoshita, J. Biol. Chem., 240,877 (1965). In the present case the procedure of Hayman and Kinoshita was modified in that the final chromatography step was omitted in the preparation of the enzyme from bovine lens.
(§5) The figures under L and N represent the percentage decrease of dulcitol accumulation in the tissues of the lens and sciatic nerve, respectively, for treated rats as compared to untreated rats.

[2] = system: dulcitol accumulation in the sciatic nerve; assay: % lowering of dulcitol accumulation in sciatic nerve (N) of galactosemic rats; type: in vivo, Sprague-Dawley; set-up: key: NS: statistically nonsignificant change; settings: 4 days
Excerpt: as §1, §2, §3, §4, §5

Row | Compound | inhibition at 0.04 µM (aldose reductase; 4 × 10^-8 M) | inhibition at 10 µM (aldose reductase; 10^-5 M) | inhibition at 1 µM (aldose reductase; 10^-6 M) | inhibition at 0.1 µM (aldose reductase; 10^-7 M) | % Lowering Dulcitol Accumulation IN VIVO, L (lens) ([1]; 0.5 mg/kg in diet) | % Lowering Dulcitol Accumulation IN VIVO, L (lens) ([1]; 1.0 mg/kg in diet) | % Lowering Dulcitol Accumulation IN VIVO, N (sciatic nerve) ([2]; 0.5 mg/kg in diet) | % Lowering Dulcitol Accumulation IN VIVO, N (sciatic nerve) ([2]; 1.0 mg/kg in diet) | inhibition at 1 µM (aldose reductase) | inhibition at 10 µM (aldose reductase) | further results
1 | O=C1CC2(C(=O)N1)C(=O)N(Cc1ccc(Br)cc1F)C(=O)c1cccc(F)c12 (centres unmarked) [[2-[(4-Bromo-2-fluorophenyl)methyl]-5-fluoro]spiro[isoquinoline-4(1H),3'-pyrrolidine]-1,2',3,5'(2H)-tetrone] | 44% | 98% | 98% | 92% | 14.2% | 23.9% | 52.5% | 77.0% |  |  | 
2 | O=C1CC2(C(=O)N1)C(=O)N(Cc1ccc(Cl)c(Cl)c1)C(=O)c1ccccc12 (centres unmarked) [2-[(3,4-Dichlorophenyl)methyl]spiro[isoquinoline-4(1H),3'-pyrrolidine]-1,2',3,5'(2H)-tetrone] | 42% | 100% | 97% | 87% |  | 10.0% |  | 64.0% |  |  | % Lowering Dulcitol Accumulation IN VIVO, L (lens) ([1]; 3.0 mg/kg in diet): 18.0%; % Lowering Dulcitol Accumulation IN VIVO, L (lens) ([1]; 10.0 mg/kg in diet): 35.0%; % Lowering Dulcitol Accumulation IN VIVO, L (lens) ([1]; 48.0 mg/kg in diet): 41.0%; % Lowering Dulcitol Accumulation IN VIVO, N (sciatic nerve) ([2]; 3.0 mg/kg in diet): 76.0%; % Lowering Dulcitol Accumulation IN VIVO, N (sciatic nerve) ([2]; 10.0 mg/kg in diet): 92.0%; % Lowering Dulcitol Accumulation IN VIVO, N (sciatic nerve) ([2]; 48.0 mg/kg in diet): 85.0%
3 | O=C1CC2(C(=O)N1)C(=O)N(Cc1ccc(Br)cc1F)C(=O)c1ccc(Cl)cc12 (centres unmarked) [[2-[(4-Bromo-2-fluorophenyl)methyl]-6-chloro]spiro[isoquinoline-4(1H),3'-pyrrolidine]-1,2',3,5'(2H)-tetrone] | 8% | 97% | 92% | 55% |  |  |  |  |  |  | % Lowering Dulcitol Accumulation IN VIVO, L (lens) ([1]; 0.6 mg/kg in diet): 9%; % Lowering Dulcitol Accumulation IN VIVO, N (sciatic nerve) ([2]; 0.6 mg/kg in diet): 29%
4 | O=C1C[C@@]2(C(=O)N1)C(=O)N(Cc1ccc(Br)cc1F)C(=O)c1ccccc12 [(R)-(+)-2-[(4-Bromo-2-fluorophenyl)methyl]spiro[isoquinoline-4(1H),3'-pyrrolidine]-1,2',3,5'(2H)-tetrone] | 87% |  |  | 91% | NS |  | 83% |  | 93% | 96% | % Lowering Dulcitol Accumulation IN VIVO, L (lens) ([1]; 5.1 mg/kg in diet): NS; % Lowering Dulcitol Accumulation IN VIVO, N (sciatic nerve) ([2]; 5.1 mg/kg in diet): 100%
5 | O=C1CC2(C(=O)N1)C(=O)N(Cc1ccc(Br)cc1F)C(=O)c1ccccc12 (centres unmarked) [2-[(4-Bromo-2-fluorophenyl)methyl]spiro[isoquinoline-4(1H),3'-pyrrolidine]-1,2',3,5'(2H)-tetrone] | 51% |  |  |  | 12.0% | 16.0% | 82.0% | 95.0% | 94% | 96% | inhibition at 0.1 µM (aldose reductase): 94%; % Lowering Dulcitol Accumulation IN VIVO, L (lens) ([1]; 0.1 mg/kg in diet): NS; % Lowering Dulcitol Accumulation IN VIVO, L (lens) ([1]; 0.3 mg/kg in diet): NS; % Lowering Dulcitol Accumulation IN VIVO, N (sciatic nerve) ([2]; 0.1 mg/kg in diet): 26.0%; % Lowering Dulcitol Accumulation IN VIVO, N (sciatic nerve) ([2]; 0.3 mg/kg in diet): 60.0%
6 | O=C1CC2(C(=O)N1)C(=O)N(Cc1ccc(Br)cc1F)C(=O)c1ccc(F)cc12 (centres unmarked) [[2-[(4-Bromo-2-fluorophenyl)methyl]-6-fluoro]spiro[isoquinoline-4(1H),3'-pyrrolidine]-1,2',3,5'(2H)-tetrone] |  |  |  |  | NS |  | 82.9% and 92.1% |  | 96% | 97% | inhibition at 0.04 µM (aldose reductase): 38%; % Lowering Dulcitol Accumulation IN VIVO, L (lens) ([1]; 0.3 mg/kg in diet): NS; % Lowering Dulcitol Accumulation IN VIVO, L (lens) ([1]; 0.9 mg/kg in diet): NS; % Lowering Dulcitol Accumulation IN VIVO, N (sciatic nerve) ([2]; 0.3 mg/kg in diet): 39.7%; % Lowering Dulcitol Accumulation IN VIVO, N (sciatic nerve) ([2]; 0.9 mg/kg in diet): 93.5%
7 | O=C1CC2(C(=O)N1)C(=O)N(Cc1ccc(Br)cc1F)C(=O)c1cc(F)ccc12 (centres unmarked) [[2-[(4-Bromo-2-fluorophenyl)methyl]-7-fluoro]spiro[isoquinoline-4(1H),3'-pyrrolidine]-1,2'3,5'(2H)-tetrone] | 42% | 95% |  | 92% | NS | NS | NS | 50.2% | 93% |  | 
8 | CCN1C(=O)c2ccccc2C2(CC(=O)NC2=O)C1=O (centres unmarked) [H H CH2 CH3, 2-Ethylspiro[isoquinoline-4(1H),3'-pyrrolidine]-1,2',3,5'(2H)-tetrone] | 17% |  | 76% | 27% |  |  |  |  |  | 96% | % Lowering Dulcitol Accumulation IN VIVO, L (lens) ([1]; 11 mg/kg in diet): NS; % Lowering Dulcitol Accumulation IN VIVO, N (sciatic nerve) ([2]; 11 mg/kg in diet): NS
9 | CN1C(=O)c2ccc(Cl)cc2C2(CC(=O)NC2=O)C1=O (centres unmarked) [6-Cl H CH3, 6-Chloro-2-methylspiro[isoquinoline-4(1H)3'-pyrrolidine]-1,2',3,5'(2H)-tetrone] | 43% |  |  | 73% |  | 33% |  | 75% | 94% | 93% | % Lowering Dulcitol Accumulation IN VIVO, L (lens) ([1]; 3.0 mg/kg in diet): 59%; % Lowering Dulcitol Accumulation IN VIVO, N (sciatic nerve) ([2]; 3.0 mg/kg in diet): 75%
